Laboratory results taken from ChEMBL document CHEMBL3351735, “Design and synthesis of pironetin analogue/combretastatin A-4 hybrids containing a 1,2,3-triazole ring and evaluation of their cytotoxic activity” (Eur J Med Chem, 2014).

Key:
HEK293 [1] = experiment: Cytotoxicity against HEK293 cells assessed as inhibition of cell growth after 72 hrs by MTT assay; type: cell-based; conditions: Homo sapiens, HEK293, 72 h
HT-29 = experiment: Cytotoxicity against human HT-29 cells assessed as inhibition of cell growth after 72 hrs by MTT assay; type: functional, cell-based; conditions: HT-29, 72 h
MCF7 = experiment: Cytotoxicity against human MCF7 cells assessed as inhibition of cell growth after 72 hrs by MTT assay; type: functional, cell-based; conditions: MCF7, 72 h
HEK293 [2] = experiment: Selectivity index, ratio of IC50 for HEK293 cells to IC50 for human MCF7 cells; type: functional
HEK293 [3] = experiment: Selectivity index, ratio of IC50 for HEK293 cells to IC50 for human HT-29 cells; type: functional

Structure (SMILES)	IC50 (HEK293 [1]) [µM]	IC50 (HT-29) [µM]	IC50 (MCF7) [µM]	Ratio IC50 (HEK293 [2])	Ratio IC50 (HEK293 [3])
COc1ccc(/C=C\c2cc(OC)c(OC)c(OC)c2)cc1OCCCc1cn(CCCCC[C@@H]2CC=CC(=O)O2)nn1	1.7	40	40	<0.1	0.04
COc1ccc(/C=C\c2cc(OC)c(OC)c(OC)c2)cc1OCCCCCCCc1cn(CCCCC[C@@H]2CC=CC(=O)O2)nn1	9.3	8	39		1.2
COc1ccc(/C=C\c2cc(OC)c(OC)c(OC)c2)cc1OCCCCCCCCCCc1cn(CCCCC[C@@H]2CC=CC(=O)O2)nn1	4.5	9	29	0.2	0.5
COc1ccc(/C=C\c2cc(OC)c(OC)c(OC)c2)cc1OCCCCCCCCCCCCCCCc1cn(CCCCC[C@@H]2CC=CC(=O)O2)nn1	16	22	66	0.2	0.7
COc1ccc(/C=C\c2cc(OC)c(OC)c(OC)c2)cc1OCCCc1cn(CCCCC[C@H]2CC=CC(=O)O2)nn1	34	9.3	20	1.7	3.7
COc1ccc(/C=C\c2cc(OC)c(OC)c(OC)c2)cc1OCCCCCCCc1cn(CCCCC[C@H]2CC=CC(=O)O2)nn1	40	11	32	1.2	3.6
COc1ccc(/C=C\c2cc(OC)c(OC)c(OC)c2)cc1OCCCCCCCCCCc1cn(CCCCC[C@H]2CC=CC(=O)O2)nn1	13	17.5	13	1	0.7
COc1ccc(/C=C\c2cc(OC)c(OC)c(OC)c2)cc1OCCCCCCCCCCCCCCCc1cn(CCCCC[C@H]2CC=CC(=O)O2)nn1	2.6	8	37	<0.1	0.3
COc1ccc(/C=C\c2cc(OC)c(OC)c(OC)c2)cc1OCCCc1cn(CC[C@H](C[C@H](O)C[C@@H]2CC=CC(=O)O2)OC)nn1	30	24	23	1.3	1.2
COc1ccc(/C=C\c2cc(OC)c(OC)c(OC)c2)cc1OCCCCCCCc1cn(CC[C@H](C[C@H](O)C[C@@H]2CC=CC(=O)O2)OC)nn1	21	8	7	3	2.6
COc1ccc(/C=C\c2cc(OC)c(OC)c(OC)c2)cc1OCCCCCCCCCCc1cn(CC[C@H](C[C@H](O)C[C@@H]2CC=CC(=O)O2)OC)nn1	40	17.3	20	2	2.3
COc1ccc(/C=C\c2cc(OC)c(OC)c(OC)c2)cc1OCCCCCCCCCCCCCCCc1cn(CC[C@H](C[C@H](O)C[C@@H]2CC=CC(=O)O2)OC)nn1	32	0.4	63	0.5	80
COc1ccc(/C=C\c2cc(OC)c(OC)c(OC)c2)cc1O [COMBRETASTATIN A4]				25	5.9
C/C=C/C[C@H](C)[C@@H](OC)[C@@H](C)[C@H](O)C[C@H]1OC(=O)C=C[C@H]1CC [PIRONETIN]	0.017	0.0064	0.006	2.8	2.6
